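Step 1: Grow cells in 96-well plates. Step 2: Expose to compound for 48 hours at 5 concentrations. Step 3: Interpolate endpoints linearly; if unreached, use highest concentration. TGI: total growth inhibition.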
What was measured:
Experiment in all cases: NCI anticancer screen, dose series, 48 h
A549 NSCLC = test system: A549 NSCLC
ACHN renal = test system: ACHN renal
HL-60(TB) leukemia = test system: HL-60(TB) leukemia
MALME-3M melanoma = test system: MALME-3M melanoma
NCI-H226 lung = test system: NCI-H226 lung
NCI-H460 lung = test system: NCI-H460 lung
NCI-H522 lung = test system: NCI-H522 lung
NCI/ADR-RES ovarian = test system: NCI/ADR-RES ovarian
OVCAR-5 ovarian = test system: OVCAR-5 ovarian
SF-268 CNS = test system: SF-268 CNS
SR leukemia = test system: SR leukemia
SW-620 colon = test system: SW-620 colon
U251 CNS = test system: U251 CNS
A498 renal = test system: A498 renal
RXF 393 renal = test system: RXF 393 renal

## O=C1NCc2ccccc2S(=O)(=O)n2cccc21
A549 NSCLC
  TGI: > 100 µM
ACHN renal
  TGI: > 100 µM
HL-60(TB) leukemia
  TGI: > 100 µM
MALME-3M melanoma
  TGI: > 100 µM
NCI-H226 lung
  TGI: > 100 µM
NCI-H460 lung
  TGI: > 100 µM
NCI-H522 lung
  TGI: > 100 µM
NCI/ADR-RES ovarian
  TGI: > 100 µM
OVCAR-5 ovarian
  TGI: > 100 µM
SF-268 CNS
  TGI: > 100 µM
SR leukemia
  TGI: > 100 µM
SW-620 colon
  TGI: > 100 µM
U251 CNS
  TGI: > 100 µM

## O=C1CSC(c2ccc([N+](=O)[O-])cc2)N1c1ccc(-n2c(-c3ccccc3)nc3ccccc3c2=O)cc1 (stereo not given)
A498 renal
  TGI: > 100 µM
A549 NSCLC
  TGI: > 100 µM
ACHN renal
  TGI: > 100 µM
HL-60(TB) leukemia
  TGI: > 100 µM
MALME-3M melanoma
  TGI: > 100 µM
NCI-H226 lung
  TGI: > 100 µM
NCI-H460 lung
  TGI: > 100 µM
NCI-H522 lung
  TGI: > 100 µM
NCI/ADR-RES ovarian
  TGI: > 100 µM
SF-268 CNS
  TGI: > 100 µM
SR leukemia
  TGI: > 100 µM
SW-620 colon
  TGI: > 100 µM
U251 CNS
  TGI: > 100 µM

## Cc1cccc(N(C(=O)Nc2ccc(Cl)c(Cl)c2)C2=NCC(C)S2)c1 (stereo not given)
A498 renal
  TGI: > 100 µM
A549 NSCLC
  TGI: > 100 µM
ACHN renal
  TGI: > 100 µM
HL-60(TB) leukemia
  TGI: > 100 µM
MALME-3M melanoma
  TGI: > 100 µM
NCI-H460 lung
  TGI: > 100 µM
NCI/ADR-RES ovarian
  TGI: > 100 µM
OVCAR-5 ovarian
  TGI: > 100 µM
SF-268 CNS
  TGI: > 100 µM
SR leukemia
  TGI: > 100 µM
SW-620 colon
  TGI: > 100 µM
U251 CNS
  TGI: > 100 µM

## Cc1ccc(N(C(=O)Nc2ccccc2)C2=NCC(C)S2)cc1C (stereo not given)
A498 renal
  TGI: 47.9 µM
A549 NSCLC
  TGI: > 100 µM
ACHN renal
  TGI: > 100 µM
HL-60(TB) leukemia
  TGI: 63.7 µM
MALME-3M melanoma
  TGI: 40.7 µM
NCI-H460 lung
  TGI: 44.6 µM
NCI/ADR-RES ovarian
  TGI: 52.4 µM
OVCAR-5 ovarian
  TGI: 73.5 µM
SF-268 CNS
  TGI: 69.8 µM
SR leukemia
  TGI: 86 µM
SW-620 colon
  TGI: 62.9 µM
U251 CNS
  TGI: 51.3 µM

## CN1CCN(c2ncc3c(n2)sc2c(=O)n(-c4ccccc4)cnc23)CC1
A498 renal
  TGI: > 100 µM
A549 NSCLC
  TGI: > 100 µM
ACHN renal
  TGI: > 100 µM
MALME-3M melanoma
  TGI: > 100 µM
NCI-H226 lung
  TGI: > 100 µM
NCI-H460 lung
  TGI: > 100 µM
NCI-H522 lung
  TGI: > 100 µM
NCI/ADR-RES ovarian
  TGI: > 100 µM
OVCAR-5 ovarian
  TGI: > 100 µM
RXF 393 renal
  TGI: > 100 µM
SF-268 CNS
  TGI: > 100 µM
SR leukemia
  TGI: > 100 µM
SW-620 colon
  TGI: > 100 µM
U251 CNS
  TGI: > 100 µM

## C[C@@H](c1ccccc1)N1CN(C(=O)OCc2ccccc2)C(C)(C)CC1=O
A549 NSCLC
  TGI: > 100 µM
ACHN renal
  TGI: > 100 µM
HL-60(TB) leukemia
  TGI: > 100 µM
MALME-3M melanoma
  TGI: > 100 µM
NCI-H226 lung
  TGI: > 100 µM
NCI-H460 lung
  TGI: > 100 µM
NCI-H522 lung
  TGI: > 100 µM
NCI/ADR-RES ovarian
  TGI: > 100 µM
OVCAR-5 ovarian
  TGI: > 100 µM
RXF 393 renal
  TGI: 70.9 µM
SF-268 CNS
  TGI: > 100 µM
SR leukemia
  TGI: > 100 µM
SW-620 colon
  TGI: > 100 µM
U251 CNS
  TGI: > 100 µM

## O=S(=O)(O)C(=Nc1cccc(Cc2ccccc2)c1)Nc1cccc(Cc2ccccc2)c1
A498 renal
  TGI: 45.8 µM
A549 NSCLC
  TGI: 51.9 µM
ACHN renal
  TGI: 38.7 µM
HL-60(TB) leukemia
  TGI: 95.7 µM
MALME-3M melanoma
  TGI: 32.6 µM
NCI-H226 lung
  TGI: 33.7 µM
NCI-H522 lung
  TGI: 29.4 µM
NCI/ADR-RES ovarian
  TGI: 35.2 µM
OVCAR-5 ovarian
  TGI: 33.7 µM
RXF 393 renal
  TGI: 33.3 µM
SF-268 CNS
  TGI: 33.6 µM
SR leukemia
  TGI: 69.7 µM
SW-620 colon
  TGI: 52.1 µM
U251 CNS
  TGI: 37.8 µM

## CC(C)(C)OC(=O)N1CCC(C(=O)O)CC1
A498 renal
  TGI: > 100 µM
A549 NSCLC
  TGI: > 100 µM
ACHN renal
  TGI: > 100 µM
HL-60(TB) leukemia
  TGI: > 100 µM
MALME-3M melanoma
  TGI: > 100 µM
NCI-H460 lung
  TGI: > 100 µM
NCI-H522 lung
  TGI: > 100 µM
NCI/ADR-RES ovarian
  TGI: > 100 µM
OVCAR-5 ovarian
  TGI: > 100 µM
SF-268 CNS
  TGI: > 100 µM
SR leukemia
  TGI: > 100 µM
SW-620 colon
  TGI: > 100 µM
U251 CNS
  TGI: > 100 µM

From PubChem BioAssay (NCI)
